Several values for one entry are separate records, joined by “and”; a condition that tells them apart may be missing. Equal values may be shown once.

The target of the assay is T1, human GPR40 (Homo sapiens, UniProt O14842).
T1 construct: expressed in transfected cells
T1 sequence (O14842 whole entry): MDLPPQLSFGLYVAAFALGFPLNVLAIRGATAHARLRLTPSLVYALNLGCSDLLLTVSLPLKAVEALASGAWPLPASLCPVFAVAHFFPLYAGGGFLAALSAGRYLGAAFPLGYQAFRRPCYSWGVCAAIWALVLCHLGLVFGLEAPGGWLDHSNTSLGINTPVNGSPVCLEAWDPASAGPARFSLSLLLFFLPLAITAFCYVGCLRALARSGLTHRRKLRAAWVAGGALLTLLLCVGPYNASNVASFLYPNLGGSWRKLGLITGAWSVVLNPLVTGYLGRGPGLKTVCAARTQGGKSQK
Description: GPR40 calcium flux assay (hGPR40 Ca2+ Assay). The format is cell-based. The note with it: transfected HEK293 cells stably expressing human GPR40; Fluo 8 calcium dye; multiple values = repeated testing; read-out: hGPR40 Ca^2+ Assay EC50. Here is the method:
Compounds were tested in a calcium flux assay using transfected HEK293 cells stably expressing either human GPR40 or rat GPR40. Human GPR40 expressing cells were cultured in DMEM-High Glucose media supplemented with 10% fetal bovine serum, 1× L-Glutamine, 1× Penicillin/Streptomycin and 500 μg/mL G418. Rat GPR40 expressing cells were cultured in DMEM-High Glucose media supplemented with 10% fetal bovine serum and 1 μg/mL puromycin. Cells were plated into poly-D-lysine coated 384-well plates and cultured overnight in a 37° C. humidified tissue culture incubator under 5% CO2/[…] atmosphere. On the day of the experiment, the culture media was replaced with assay buffer (HBSS, 20 mM HEPES, 0.1% BSA) and the cells incubated at 37° C. for 1 h. Calcium-sensitive fluorescent dye (Fluo 8 No-Wash Calcium Dye, ABD Bioquest) was then added and the cells incubated for another 30 min at 37° C. followed by 15 min at room temperature while protected from the light. The cell plate and a plate of diluted compounds of Formula (III) were loaded into a fluorescent plate reader that added compounds onto the cells while measuring the fluorescence intensity of each well. The plate reader recorded fluorescence intensity at 1 second intervals for 8 min and provided the data for analysis in an Excel format. EC50 values were calculated using Prism (GraphPad) software.
A general note: Calcium assays in cells follow changes in intracellular calcium, usually with a dye or a luminescent sensor.
As usually defined, the EC50 is the concentration at which the effect is half-maximal. With `COc1ccc(F)c(-n2nnc(COc3cc([C@H](CC(=O)O)C4CC4)ccn3)c2C2=CCCC2(C)C)c1` [Cpd 75, (3R)-3-cyclopropyl-3-[2-[[5-(5,5-dimethylcyclopenten-1-yl)-1-(2-fluoro-5-methoxy-phenyl)triazol-4-yl]methoxy]-4-pyridyl]propanoic acid], the EC50 stood at 0.06 µM.

For `COc1ccc(F)c(-n2nnc(COc3cccc([C@@H](CC(=O)O)C4CC4)c3)c2OC2CCCC2)c1` [Cpd 67, (3S)-3-[3-[[5-(cyclopentoxy)-1-(2-fluoro-5-methoxy-phenyl)triazol-4-yl]methoxy]phenyl]-3-cyclopropyl-propanoic acid], the EC50 was 6 nM and 10 nM (2×).

Regarding `COc1ccc(F)c(-n2ncc(/C=C/c3cccc(C(CC(=O)O)C4CC4)c3)c2C2CC2)c1` (centres unmarked) [Cpd 76, 3-cyclopropyl-3-[3-[(E)-2-[5-cyclopropyl-1-(2-fluoro-5-methoxy-phenyl)pyrazol-4-yl]vinyl]phenyl]propanoic acid], the half-maximal effective concentration (EC50) amounted to 0.066 µM.

Regarding `COc1ccc(F)c(-n2nnc(COc3cccc([C@@H](CC(=O)O)C4CC4)c3)c2-c2ccc(C(C)(C)C)s2)c1` [Cpd 92, (3S)-3-[3-[[5-(5-tert-butyl-2-thienyl)-1-(2-fluoro-5-methoxy-phenyl)triazol-4-yl]methoxy]phenyl]-3-cyclopropyl-propanoic acid], the half-maximal effective concentration (EC50) is 0.01 µM and 0.009 µM.

As to `COc1ccc(F)c(-n2nnc(COc3cccc([C@@H](CC(=O)O)C4CC4)c3)c2CC(C)C)c1` [Cpd 83, (3S)-3-cyclopropyl-3-[3-[[1-(2-fluoro-5-methoxy-phenyl)-5-isobutyl-triazol-4-yl]methoxy]phenyl]propanoic acid], the concentration for a half-maximal effect (EC50) is 0.007 µM and 0.006 µM.

For `COc1ccc(F)c(-n2ncc(COc3cccc([C@@H](CC(=O)O)C4CC4)c3)c2N2CCOCC2)c1` [Cpd 73, (3S)-3-cyclopropyl-3-[3-[[1-(2-fluoro-5-methoxy-phenyl)-5-morpholino-pyrazol-4-yl]methoxy]phenyl]propanoic acid], the EC50 was 0.027 µM.

Consider `COc1ccc(F)c(-n2ncc(COc3cc(C(CC(=O)O)C4CC4)ccn3)c2C2=CCCC2(C)C)c1` (centres unmarked) [Cpd 65, 3-cyclopropyl-3-[2-[[5-(5,5-dimethylcyclopenten-1-yl)-1-(2-fluoro-5-methoxy-phenyl)pyrazol-4-yl]methoxy]-4-pyridyl]propanoic acid], for which the EC50 was found to be 0.001 µM.

In the case of `COc1ccc(F)c(-n2cnc(COc3cccc([C@@H](CC(=O)O)C4CC4)c3)c2C2=CCCC2(C)C)c1` [Cpd 87, (3S)-3-cyclopropyl-3-[3-[[5-(5,5-dimethylcyclopenten-1-yl)-1-(2-fluoro-5-methoxy-phenyl)imidazol-4-yl]methoxy]phenyl]propanoic acid], the half-maximal effective concentration (EC50) is 0.085 µM and 0.068 µM.

(Values after patent publication US9856245B2, “GPR40 agonists for the treatment of type II diabetes” (Janssen Pharmaceutica NV, priority 2015, dated 2018).)
